Source: patent publication US6921824B1, “Ruthenium dimeric complexes suitable as antimetastatic and antineoplastic agents” (priority 1999, dated 2005)
Marks after values point to notes of the source that are not given here.

Columns and labels:
[1] = system: MCa mammary carcinoma; assay: Pre-surgical treatment: prevention of lung metastases formation in mice with MCa mammary carcinoma; assay type: in vivo; conditions: for Lung metastases Number % T/C / Lung metastases weight % T/C: Treated/Control; for Lung metastases Number mean / Lung metastases weight (mg) mean: evaluated day 29; for Body weight % var: variation day 11 to day 16 vs untreated controls; for Selectivity of action on lung metastases versus primary tumour: MCa mammary carcinoma model of the CBA mouse
Experimental: In vivo tests of the activity of the compounds according to the present invention in mice affected from MCa mammary carcinoma: prevention activity in the formation of lung metastases.
Five groups of CBA kin female mice weighing 23±3 g were inoculated with […] viable cells (as determined by the Trypan blue exclusion) of MCa mammary carcinoma in 0.05 ml Dulbecco's pH 7.4 buffered calcium and magnesium-free solution (PBS), by intramuscular injection with a sterile insulin syringe. The tumour cells were derived from donors of the same strain, injected with the same tumour cells, following the same procedures 2 weeks before. The suspension of tumour cells was prepared in PBS by mechanically mincing the tumour mass obtained from donor mice, and further removing tissue debris and cells by, respectively, filtration through a double layer of sterile gauze and centrifugation at 250× g for 10 minutes. Kin animals were obtained from a colony from Chester Beatthy from London (UK) which were grown in the University of Trieste animal house accordingly to the procedures accepted for the rearing of kin animals. The MCa mammary carcinoma tumour cell-line derived from a stock, stored in liquid nitrogen, of tumour cells obtained originally from Rudjer Boskovic Institute of Zagreb (HR).
From day 11 to day 16, after tumour cells implantation, five mice groups were treated intraperitoneally with a sterile insulin syringe, respectively with: • Group 1 Control (10 animals): 10 ml/kg of body weight/day of sterile and pyrogen-free physiological solution; • Group 2 (two subgroups a,b of five animals each): 7.5 (a), 15 (b) mg/kg of body weight/day of the compound prepared as described in Example 4 in sterile and pyrogen-free physiological solution; • Group 3 (2 subgroups c,d of five animals each): 15 (c), 30 (d) mg/kg of body weight/day of the compound prepared as described in Example 7 in sterile and pyrogen-free physiological solution; • Group 4 (2 subgroups e,f of 5 animals each): 25 (e), 50 (f) mg/kg of body weight/day of the compound prepared as described in Example 8 in sterile and pyrogen-free physiological solution; • Group 5 (2 subgroups g,h of 5 animals each): 12.5 (g), 25 (h) mg/kg of body weight/day of the compound prepared as described in Example 10 in sterile and pyrogen-free physiological solution.
The administered dosages were either approximated to LD0.1, or to half of it or to a quarter of it, as calculated separately in animals of the same strain and gender and with the same body weight, for an intraperitoneal treatment lasting 6 consecutive days, according to the method of Lichtfield and Wilcoxon, and with an observation time of 10 days since the last dose.
On day 17 since tumour cells implantation, the primary tumour was surgically removed, after general anesthesia of the animals by intraperitoneal injection of 125 mg/kg of Ketamine.
On day 29 since tumour cells implantation, the mice were sacrificed by cervical dislocation for the evaluation of lung metastases. The lungs were abducted from the animals immediately after sacrifice, divided in single lobes which then examined immediately with a low-magnification microscope equipped with a graduated ocular-grid for the measurement of the size of the metastases in which the a and b orthogonal axes (a≦b) were identified. Metastases were classified by size and the metastatic tumour weight for each animal was calculated as the sum of each single metastasis weight, each of them considered as a rotation solid developed around the above mentioned axes and calculated according to the formula (π/6)·a^2·b. The experimental data obtained were then processed by appropriate statistical tests. […]

[2] = system: murine TS/A adenocarcinoma cells; assay: In vitro cytotoxicity, SRB test (protein synthesis); assay type: cell-based; conditions: for Antiproliferative activity (in words): SRB and MTT, up to 72 h
Experimental: (§1) In vitro cytotoxicity of complexes of the present invention on murine TS/A adenocarcinoma cells.
(§2) 4×10^3 murine TS/A adenocarcinoma cells resuspended in 200 μl RPMI-1640 medium supplemented with 10% FCS (fetal calf serum), 2 mM glutamine and 50 μg/ml gentamicin sulphate, were seeded in a 96-wells plate. After 24 hours incubation at 37° C., in 5% CO2, the complexes as described in example 4 (A), in example 7 (B), in example 8 (C) and in example 10 (D), each solubilised in RPMI-1640 medium supplemented with 5% FCS, 2 mM glutamine and 50 μg/ml gentamicin sulphate, were added to the cells, each at a final concentration of 10^−4, 10^−5 and 10^−6 M. Cell viability tests were performed after 24, 48 and 72 hours of exposure to the compounds by assessing both the effect on protein synthesis and on mitochondrial activity by means of colorimetric assays, respectively the solphorodamine B test (SRB) and the MTT analysis. Each value (optical density) is the average percentage ±S.E. versus the untreated controls.
(§3) Values such as *p<0.05, **p<0.01 indicate average values statistically different from the controls. Analysis of Variance and Dunnet test were used in the comparison analysis.
(§4) The results are reported in Table 3, wherein both the effect on protein synthesis (SRB) and the mitochondrial activity (MTT) are reported for each complexes tested at different dosages after different exposure time.

[3] = system: murine TS/A adenocarcinoma cells; assay: In vitro cytotoxicity, MTT analysis (mitochondrial activity); assay type: cell-based
Experimental: as §1, §2, §3, §4

[4] = LD0.05 determination, intraperitoneal treatment for 6 consecutive days (Lichtfield and Wilcoxon); assay type: in vivo; conditions: observation time 10 days since last dose
Experimental: The dosages corresponding to the LD0.05, calculated separately in animals of the same strain and gender and having the same body weight, was administered intraperitoneally for 6 consecutive days, according to the method of Lichtfield and Wilcoxon, and with an observation time of 10 days since last dose.

[5] = 25 mg/kg/die i.p. day 11-16, pre-surgical
[6] = 50 mg/kg/die i.p. day 11-16, pre-surgical
[7] = 7.5 mg/kg/die i.p. day 11-16, pre-surgical
[8] = 15 mg/kg/die i.p. day 11-16, pre-surgical
[9] = at two dose levels, pre-surgical treatment

Row | Compound | Selectivity of action on lung metastases versus primary tumour [1] | SRB optical density, average percentage ±S.E. versus untreated controls ([2]; 10^−4 M, exposure time 24 h) | SRB optical density, average percentage ±S.E. versus untreated controls ([2]; 10^−4 M, exposure time 48 h) | SRB optical density, average percentage ±S.E. versus untreated controls ([2]; 10^−4 M, exposure time 72 h) | SRB optical density, average percentage ±S.E. versus untreated controls ([2]; 10^−5 M, exposure time 24 h) [%] | SRB optical density, average percentage ±S.E. versus untreated controls ([2]; 10^−5 M, exposure time 48 h) [%] | SRB optical density, average percentage ±S.E. versus untreated controls ([2]; 10^−5 M, exposure time 72 h) [%] | SRB optical density, average percentage ±S.E. versus untreated controls ([2]; 10^−6 M, exposure time 24 h) [%] | SRB optical density, average percentage ±S.E. versus untreated controls ([2]; 10^−6 M, exposure time 48 h) [%] | SRB optical density, average percentage ±S.E. versus untreated controls ([2]; 10^−6 M, exposure time 72 h) [%] | Antiproliferative activity (in words) [2] | MTT optical density, average percentage ±S.E. versus untreated controls ([3]; 10^−4 M, exposure time 24 h) | MTT optical density, average percentage ±S.E. versus untreated controls ([3]; 10^−4 M, exposure time 48 h) | MTT optical density, average percentage ±S.E. versus untreated controls ([3]; 10^−4 M, exposure time 72 h) | MTT optical density, average percentage ±S.E. versus untreated controls ([3]; 10^−5 M, exposure time 24 h) [%] | MTT optical density, average percentage ±S.E. versus untreated controls ([3]; 10^−5 M, exposure time 48 h) [%] | MTT optical density, average percentage ±S.E. versus untreated controls ([3]; 10^−5 M, exposure time 72 h) [%] | MTT optical density, average percentage ±S.E. versus untreated controls ([3]; 10^−6 M, exposure time 24 h) [%] | MTT optical density, average percentage ±S.E. versus untreated controls ([3]; 10^−6 M, exposure time 48 h) [%] | MTT optical density, average percentage ±S.E. versus untreated controls ([3]; 10^−6 M, exposure time 72 h) [%] | further results
1 | [Na]2[trans-RuCl4(Me2SO)]2(μ-bipy) [Example 8] | act selectively on lung metastases | 16 ± 1** % | 49 ± 6** % | 78 ± 5** % | 102 ± 9 | 86 ± 9 | 88 ± 7 | 77 ± 6 | 92 ± 8 | 95 ± 2 | scarce and reversible | 33 ± 5** % | 52 ± 9** % | 68 ± 4** % | 129 ± 9 | 91 ± 3 | 90 ± 2 | 91 ± 7 | 103 ± 9 | 93 ± 5 | Lung metastases Number % T/C [1, 5]: 213%; Lung metastases weight % T/C [1, 5]: 144%; Lung metastases Number mean [1, 5]: 111; Lung metastases weight (mg) mean [1, 5]: 119 mg; Body weight % var ([1]; 25 mg/kg/die i.p. day 11-16): −3.4%; Lung metastases Number % T/C [1, 6]: 15%; Lung metastases weight % T/C [1, 6]: 4%; Lung metastases Number mean [1, 6]: 8.0; Lung metastases weight (mg) mean [1, 6]: 3.1 mg; Body weight % var ([1]; 50 mg/kg/die i.p. day 11-16): −1.7%; LD0.05 [4]: 51 mg/kg of body weight/day
2 | C[SH](C)(=O)[Ru-]([Cl])([Cl])([Cl])([Cl])[n+]1cc[n+]([Ru-]([Cl])([Cl])([Cl])([Cl])[SH](C)(C)=O)cc1.[Na+].[Na+] [Example 4, [Na]2[trans-RuCl4(Me2SO)]2(μ-pyz)] | act selectively on lung metastases | 32 ± 1** % | 51 ± 2** % | 66 ± 2** % | 99 ± 5 | 95 ± 1 | 95 ± 2 | 112 ± 3 | 102 ± 5 | 107 ± 2 | scarce and reversible | 34 ± 1** % | 50 ± 7** % | 59 ± 1** % | 100 ± 10 | 108 ± 12 | 93 ± 4 | 105 ± 10 | 101 ± 9 | 89 ± 2 | Lung metastases Number % T/C [1, 7]: 27%; Lung metastases weight % T/C [1, 7]: 10%; Lung metastases Number mean [1, 7]: 14.0; Lung metastases weight (mg) mean [1, 7]: 8 mg; Body weight % var ([1]; 7.5 mg/kg/die i.p. day 11-16): −4.6%; Lung metastases Number % T/C [1, 8]: 4%; Lung metastases weight % T/C [1, 8]: 0%; Lung metastases Number mean [1, 8]: 2.0; Lung metastases weight (mg) mean [1, 8]: 0.2 mg; Body weight % var ([1]; 15 mg/kg/die i.p. day 11-16): −3.3%; Number of lung metastases (in words) [1, 9]: marked reduction; Weight of lung metastases (in words) [1, 9]: even more marked reduction; LD0.05 [4]: 28 mg/kg of body weight/day
